Experimental data published in patent publication US20170340693A1, “DISLODGEMENT AND RELEASE OF HSC USING ALPHA 9 INTEGRIN ANTAGONIST AND CXCR4 ANTAGONIST” (COMMONWEALTH SCIENTIFIC AND INDUSTRIAL RESEARCH ORGANISATION, priority 2014, published 2017).

Experiments:
[1] = tested on: murine BM progenitors (LSK) and HSC (LSKSLAM); experiment: In vitro R-BC154 (IXb) binding to murine central and endosteal BM cells; assay type: cell-based, mice
Text: Populations of endosteal and central murine bone marrow cells were isolated as previously described in J. Grassinger, et al Cytokine, 2012, 58, 218-225 and D. N. Haylock et al Stem Cells, 2007, 25, 1062-1069. Briefly, one femur, tibia and iliac bone were excised and cleaned of muscle. After removing the epi- and metaphyseal regions, bones were flushed with PBS-2% FBS to obtain central bone marrow cells. Flushed long bones and epi- and metaphyseal fragments were pooled and crushed using a mortar and pestle. Bone fragments were digested with Collagenase I (3 mg/ml) and Dispase II (4 mg/ml) at 37° C. in an orbital shaker at 750 rpm. After 5 min, bone fragments were washed once with PBS and once with PBS 2% FBS to collect the endosteal bone marrow cells. Peripheral blood was collected by retro-orbital puncture and red blood cells were lysed using NH4Cl lysis buffer for 5 min at room temperature. Isolated cell populations were washed with PBS 2% FBS and then stained for flow cytometry as described in Antibody Cocktails above.
(§1) For in vitro labelling experiments, 5×10^6 BM cells from C57 mice, conditional α4^−/−/α9^−/− mice and humanised NODSCIDIL2Rγ^−/− mice and human cord blood MNCs were treated with R-BC154 (IXb) (up to 300 nM) in PBS (0.5% BSA) or TBS (0.5% BSA) containing either 1 mM CaCl2/MgCl2 (activating) or 10 mM EDTA (deactivating) at 40×10^6 cells/ml for 20 mins at 4° C. Cells were washed with cold PBS (2% FBS) and then immunolabelled as described in “Antibody Cocktails” prior to flow cytometric analysis. For in vivo experiments, C57BL/6 mice, α4^−/−/α9^−/− vav-cre mice and humanised NODSCIDIL2Rγ^−/− mice received either intravenous or subcutaneous injections of R-BC154 (IXb) (5-10 mg/kg) at 100 ul/10 gm mouse weight and analysed as described above.
To determine whether integrin activation is required for binding to both central and endosteal BM progenitors (Lin^−Sca-1^+ckit^+ cells; LSK) and HSC (LSKCD150^+CD48^− cells; LSKSLAM) (FIG. 3a), R-BC154 (IXb) binding was assessed in the presence of 1 mM Ca^2+/Mg^2+ (FIG. 3b).

[2] = tested on: bone marrow progenitor cells (LSK) and HSC (LSKSLAM); experiment: In vivo bone marrow binding assay; conditions: 10 mg kg−1 intravenously, versus un-injected mice
Description: R-BC154 (IXb) in PBS (10 mg kg-1) was injected intravenously into C57 mice. After 5 min, bone marrow cells were isolated as previously described in D. N. Haylock et at Stem Cells, 2007, 25, 1062-1069 and J. Grassinger, et al Cytokine, 2012, 58, 218-225. Briefly, one femur, tibia and iliac crest were excised and cleaned of muscle. After removing the epi- and metaphyseal regions, bones were flushed with PBS-2% FBS to obtain whole bone marrow, which were washed with PBS-2% FBS and then immunolabelled for flow cytometry. For analysis of R-BC154 (IXb) binding, the following antibody combinations were chosen to minimise emission spectra overlap. […]
To assess whether R-BC154 (IXb) and this class of N-phenylsulfonyl proline-based peptidomimetics could bind directly to HSC, R-BC154 (IXb) (10 mg kg^−1) was injected intravenously into mice and analysed for R-BC154 (IXb) labelling of phenotypically defined bone marrow progenitor cells (LSK cell; lineage-Sca-1+c-Kit+) and HSC (LSKSLAM cell; LSKCD48-CD150+) using multi-colour flow cytometry. […] Furthermore, in vivo R-BC154 (IXb) binding was also confirmed by fluorescence microscopy on purified populations of progenitor cells (Lineage-Sca-1+c-Kit+).

α4β1 integrin = α4β1 integrin (Homo sapiens, UniProt P05556+P13612); experiment: In vitro (saturation) binding of R-BC154; design: expressed in transfected cells; host or cells: LN18 (ATCC CRL-2610), retrovirally transduced; conditions: in vitro binding data
Chain of α4β1 integrin (P13612 34-1032): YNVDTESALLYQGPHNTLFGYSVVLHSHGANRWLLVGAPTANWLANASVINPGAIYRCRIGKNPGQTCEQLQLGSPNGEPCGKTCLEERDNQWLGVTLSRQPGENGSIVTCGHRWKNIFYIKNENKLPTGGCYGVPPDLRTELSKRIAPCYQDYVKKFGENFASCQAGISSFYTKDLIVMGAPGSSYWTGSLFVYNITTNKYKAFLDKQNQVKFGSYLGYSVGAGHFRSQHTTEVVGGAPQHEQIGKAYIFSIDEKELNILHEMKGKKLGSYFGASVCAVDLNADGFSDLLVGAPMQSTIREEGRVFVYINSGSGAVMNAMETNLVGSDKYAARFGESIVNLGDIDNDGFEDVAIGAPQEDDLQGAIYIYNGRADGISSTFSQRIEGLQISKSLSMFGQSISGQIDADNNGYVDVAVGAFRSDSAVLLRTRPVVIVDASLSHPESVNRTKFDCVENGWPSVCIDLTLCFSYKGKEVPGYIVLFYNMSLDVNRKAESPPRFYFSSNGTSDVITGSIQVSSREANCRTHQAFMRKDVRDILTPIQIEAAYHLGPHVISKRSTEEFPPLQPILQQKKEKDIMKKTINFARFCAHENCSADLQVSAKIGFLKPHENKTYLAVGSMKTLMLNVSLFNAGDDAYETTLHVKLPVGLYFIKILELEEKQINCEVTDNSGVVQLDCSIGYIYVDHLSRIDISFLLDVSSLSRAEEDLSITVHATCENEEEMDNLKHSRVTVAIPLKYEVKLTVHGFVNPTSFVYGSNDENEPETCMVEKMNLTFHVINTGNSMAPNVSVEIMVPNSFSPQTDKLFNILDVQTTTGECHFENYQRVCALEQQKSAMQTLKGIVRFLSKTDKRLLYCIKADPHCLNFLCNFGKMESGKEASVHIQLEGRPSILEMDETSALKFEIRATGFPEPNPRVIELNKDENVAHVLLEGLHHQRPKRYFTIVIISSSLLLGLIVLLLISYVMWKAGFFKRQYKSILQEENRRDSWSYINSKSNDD
Chain of α4β1 integrin (P05556 21-798): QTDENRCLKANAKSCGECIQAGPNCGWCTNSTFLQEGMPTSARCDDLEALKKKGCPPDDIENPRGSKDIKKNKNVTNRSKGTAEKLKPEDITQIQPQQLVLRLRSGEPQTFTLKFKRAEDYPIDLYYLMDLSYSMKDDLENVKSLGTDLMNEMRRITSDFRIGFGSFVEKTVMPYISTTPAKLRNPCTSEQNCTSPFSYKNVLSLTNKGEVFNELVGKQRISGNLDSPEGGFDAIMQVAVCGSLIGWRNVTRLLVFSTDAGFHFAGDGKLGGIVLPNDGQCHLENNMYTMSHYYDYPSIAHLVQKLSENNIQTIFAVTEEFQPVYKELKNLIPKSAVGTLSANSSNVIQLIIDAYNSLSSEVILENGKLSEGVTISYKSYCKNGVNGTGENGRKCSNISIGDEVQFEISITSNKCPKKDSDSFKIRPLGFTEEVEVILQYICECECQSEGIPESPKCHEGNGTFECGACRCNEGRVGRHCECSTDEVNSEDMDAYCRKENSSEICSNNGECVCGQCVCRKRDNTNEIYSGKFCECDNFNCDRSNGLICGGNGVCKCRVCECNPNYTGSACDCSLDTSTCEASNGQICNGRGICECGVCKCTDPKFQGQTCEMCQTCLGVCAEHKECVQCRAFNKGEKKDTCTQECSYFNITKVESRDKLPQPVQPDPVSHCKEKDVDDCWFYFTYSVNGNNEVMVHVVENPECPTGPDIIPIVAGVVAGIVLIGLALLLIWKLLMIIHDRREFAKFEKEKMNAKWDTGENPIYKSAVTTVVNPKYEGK
Description: (§2) Cultured α4β1, α9β1 and control LN18 cells (0.5×10^6 cells) were treated with 100 μl of compound (R-BC154) at 0, 1, 3, 10, 30 and 100 nM in TBS-2% FBS (containing either no cations, 1 mM CaCl2—MgCl2 or 1 mM MnCl2). The cells were incubated at 37° C. for 60 min, washed once with TBS-2% FBS, dry pelleted and resuspended in the relevant binding buffer for flow cytometric analysis. Mean channel fluorescence was plotted against concentration and fitted to a one-site saturation ligand binding curve using GraphPad Prism 6. The dissociation constant, Kd was determined from the curves.

[3] = tested on: human BM committed cells, progenitors and HSC of huNSG mice; experiment: R-BC154 (IXb) binding to humanized NSG (huNSG) BM; assay type: cell-based; conditions: Ca2+/Mg2+
Description: as §1
For the assessment of α9β1 contribution to R-BC154 (IXb) binding, human and murine cells were stained with R-BC154 (100 nM) in the absence of competing antagonist or in the presence of excess amounts of the selective α4β1 antagonist BIO5192 (1 μM) or dual α4β1/α9β1 antagonist BOP (1 μM) in PBS containing 0.5% BSA and 1 mM CaCl2MgCl2 at 0° C. for 30 min. Cells were washed, immunolabelled as described above and analysed by flow cytometry. The contribution of α9β1 binding was calculated by measuring the difference in MFI between R-BC154 (IXb)+BIO5192 and +BOP and expressed as a % of R-BC154 (IXb) alone.

α9β1 integrin = α9β1 integrin (Homo sapiens, UniProt P05556+Q13797); experiment: In vitro (saturation) binding of R-BC154; design: expressed in transfected cells; host or cells: LN18 (ATCC CRL-2610), retrovirally transduced; endogenous α4 silenced with pSM2c-shITGA4; conditions: in vitro binding data
Chain of α9β1 integrin (Q13797 30-1035): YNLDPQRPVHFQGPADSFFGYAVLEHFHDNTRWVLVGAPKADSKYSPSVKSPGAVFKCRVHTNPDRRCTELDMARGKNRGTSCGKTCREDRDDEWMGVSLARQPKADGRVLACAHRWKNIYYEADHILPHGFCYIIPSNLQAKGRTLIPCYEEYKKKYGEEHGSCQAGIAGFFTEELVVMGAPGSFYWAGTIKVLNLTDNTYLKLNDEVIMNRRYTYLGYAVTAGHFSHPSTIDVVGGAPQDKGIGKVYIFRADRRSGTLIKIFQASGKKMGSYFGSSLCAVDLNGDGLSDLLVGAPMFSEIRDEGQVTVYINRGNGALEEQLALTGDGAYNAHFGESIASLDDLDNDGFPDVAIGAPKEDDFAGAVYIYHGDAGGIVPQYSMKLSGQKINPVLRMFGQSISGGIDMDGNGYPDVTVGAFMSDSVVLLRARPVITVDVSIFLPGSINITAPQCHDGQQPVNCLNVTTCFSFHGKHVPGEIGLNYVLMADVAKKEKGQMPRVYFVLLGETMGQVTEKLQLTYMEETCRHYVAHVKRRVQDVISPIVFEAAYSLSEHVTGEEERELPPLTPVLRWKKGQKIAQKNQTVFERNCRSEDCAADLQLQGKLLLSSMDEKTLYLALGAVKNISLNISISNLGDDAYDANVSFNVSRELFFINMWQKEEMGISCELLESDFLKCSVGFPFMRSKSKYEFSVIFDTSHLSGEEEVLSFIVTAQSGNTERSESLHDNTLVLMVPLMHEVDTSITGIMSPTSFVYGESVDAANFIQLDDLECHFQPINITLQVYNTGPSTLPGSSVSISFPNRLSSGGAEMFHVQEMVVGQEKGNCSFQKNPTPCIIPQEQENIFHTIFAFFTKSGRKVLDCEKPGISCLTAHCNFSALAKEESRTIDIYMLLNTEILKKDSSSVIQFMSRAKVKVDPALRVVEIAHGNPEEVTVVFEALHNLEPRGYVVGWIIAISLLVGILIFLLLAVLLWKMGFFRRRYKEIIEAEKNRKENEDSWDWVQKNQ
Chain of α9β1 integrin (P05556 21-798): as the sequence (P05556 21-798) above
Description: as §2

CCN(CC)c1ccc2c(-c3ccc(S(=O)(=O)NCc4cn(C5C[C@@H](C(=O)N[C@@H](Cc6ccc(OC(=O)N7CCCC7)cc6)C(=O)O)N(S(=O)(=O)c6ccccc6)C5)nn4)cc3S(=O)(=O)[O-])c3ccc(=[N+](CC)CC)cc-3oc2c1 (stereo partly drawn) [R-BC154 (IXb)]
binding to central versus endosteal LSK and LSKSLAM ([1]; 1 mM Ca2+/Mg2+): greater binding to central LSK and LSKSLAM was observed relative to their endosteal counterparts | binding to α4−/−/α9−/− LSK and LSKSLAM cells ([1]; BM of α4flox/flox α9flox/flox vav-cre mice): essentially absent | binding to HSC and progenitors on co-treatment with EDTA ([1]; EDTA (deactivating)): completely abolished activity | binding to endosteal and central LSK ([1]; absence of both activating cations and EDTA): binding to endosteal LSK cells was still evident but not to central LSK | binding to lineage committed lymphoid and myeloid cells relative to LSKSLAM and LSK ([1]; exogenous activation): significantly lower relative to LSKSLAM | labelling of BM progenitor cells and HSC after injection [2]: Increased cell-associated fluorescence | affinity for α4β1 integrin (α4β1 integrin): high affinity | binding through α9β1 on huNSG BM committed cells, progenitors and HSC [3]: significant binding through α9β1 only occurred on HSC | affinity for α9β1 integrin (α9β1 integrin): high affinity
